pIC50: −log10 of the molar value.
Assays:
[1] = molecular target: T1, human TREX2 (residues M44-A279) (Homo sapiens, UniProt Q9BQ50); assay: TREX2 Biochemical Assay (fluorescence assay, degradation of dsDNA substrate); conditions: 2.5 nM TREX2, 60 nM dsDNA substrate, 25 minutes at room temperature
T1 construct: human TREX2 (residues M44-A279, expressed in E. coli); His-Tev (His tag with TEV site) (N); made in house; host or cells: E. coli
T1 sequence (Q9BQ50 44-279 isoform Q9BQ50-1): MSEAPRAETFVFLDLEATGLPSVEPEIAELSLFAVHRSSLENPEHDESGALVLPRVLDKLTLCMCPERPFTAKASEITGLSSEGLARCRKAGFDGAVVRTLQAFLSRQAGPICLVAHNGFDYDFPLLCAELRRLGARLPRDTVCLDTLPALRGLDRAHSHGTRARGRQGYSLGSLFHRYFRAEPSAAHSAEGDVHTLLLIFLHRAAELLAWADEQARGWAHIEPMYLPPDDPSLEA
Experimental: Degradation of the dsDNA liberates free fluorophore to produce a fluorescent signal. Specifically, 7.5 μL of N-terminally His-Tev tagged human TREX2 (residues M44-A279, expressed in E. coli and purified in house) in reaction buffer (50 mM Tris (pH 7.4), 150 mM NaCl, 2 mM DTT, 0.1 mg/mL BSA, 0.01% (v/v) Tween-20 and 100 mM MgCl2) was added to a 384-well Black ProxiPlate Plus (Perkin Elmer) which already contained compound (150 nL) at varying concentrations as a 10 point dose-response in DMSO. To this was added 7.5 μL of dsDNA substrate (Strand A: 5′ TEX615/GCT AGG CAG 3′; Strand B: 5′ CTG CCT AGC/IAbRQSp (IDT)) in reaction buffer. Final concentrations were 2.5 nM TREX2, 60 nM dsDNA substrate in reaction buffer with 1.0% DMSO (v/v). After 25 minutes at room temperature, reactions were quenched by the addition of 5 μL of stop buffer (same as reaction buffer plus 200 mM EDTA). Final concentrations in the quenched reaction mixture were […] TREX2, 45 nM DNA and 50 mM EDTA in a volume of 20 μL. After a 5-minute incubation at room temperature, plates were read in a laser sourced Envision (Perkin-Elmer), measuring fluorescence at 615 nm following excitation w/570 nm light. IC50 values were calculated by comparing the measured fluorescence at 615 nm ratio relative to control wells pre-quenched w/stop buffer (100% inhibition) and no inhibitor (0% inhibition) controls as using non-linear least square four parameter fits and either Genedata or GraphPad Prism (GraphPad Software, Inc.).

full length human TREX1 = molecular target: T2, full length human TREX1 (Homo sapiens, UniProt Q9NSU2); assay: TREX1 Biochemical Assay (fluorescence assay, degradation of dsDNA substrate); conditions: 150 pM TREX1, 60 nM dsDNA substrate, 25 minutes at room temperature
T2 construct: N-terminally His-Tev tagged full length human TREX1; His-Tev (His tag with TEV site) (N); made in house; host or cells: E. coli
T2 sequence (Q9NSU2 1-314): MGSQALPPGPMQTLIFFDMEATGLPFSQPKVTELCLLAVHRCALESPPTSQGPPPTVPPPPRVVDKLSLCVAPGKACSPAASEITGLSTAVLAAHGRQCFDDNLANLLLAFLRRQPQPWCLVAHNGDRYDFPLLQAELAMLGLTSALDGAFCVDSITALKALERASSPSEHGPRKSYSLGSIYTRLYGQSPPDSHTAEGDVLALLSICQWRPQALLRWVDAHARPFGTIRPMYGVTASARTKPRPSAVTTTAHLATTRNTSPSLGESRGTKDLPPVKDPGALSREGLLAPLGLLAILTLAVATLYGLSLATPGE
Experimental: Degradation of the dsDNA liberates free fluorophore to produce a fluorescent signal. Specifically, 7.5 μL of N-terminally His-Tev tagged full length human TREX1 (expressed in E. coli and purified in house) in reaction buffer (50 mM Tris (pH 7.4), 150 mM NaCl, 2 mM DTT, 0.1 mg/mL BSA, 0.01% (v/v) Tween-20 and either 100 mM MgCl2) was added to a 384-well Black ProxiPlate Plus (Perkin Elmer) which already contained compound (150 nL) at varying concentrations as a 10 point dose-response in DMSO. To this was added 7.5 μL of dsDNA substrate (Strand A: 5′ TEX615/GCT AGG CAG 3′; Strand B: 5′ CTG CCT AGC/IAbRQSp (Integrated DNA Technologies)) in reaction buffer. Final concentrations were 150 pM TREX1, 60 nM dsDNA substrate in reaction buffer with 1.0% DMSO (v/v). After 25 minutes at room temperature, reactions were quenched by the addition of 5 μL of stop buffer (same as reaction buffer plus 200 mM EDTA). Final concentrations in the quenched reaction were 112.5 pM TREX1, 45 nM DNA and 50 mM EDTA in a volume of 20 μL. After a 5-minute incubation at room temperature, plates were read in a laser sourced Envision (Perkin-Elmer), measuring fluorescence at 615 nm following excitation w/570 nm light. IC50 values were calculated by comparing the measured fluorescence at 615 nm ratio relative to control wells pre-quenched w/stop buffer (100% inhibition) and no inhibitor (0% inhibition) controls as using non-linear least square four parameter fits and either Genedata or GraphPad Prism (GraphPad Software, Inc.).

pIC50 [1]	pIC50 (full length human TREX1)	SMILES
4.00 to 5.00	> 7.00	Cc1nn(C(C)C)cc1-c1cncc(N2CCC(O)(c3ccc(F)c(F)c3)CC2)n1 [Example 48, 4-(3,4-difluorophenyl)-1-(6-(1-isopropyl-3-methyl-1H-pyrazol-4-yl)pyrazin-2-yl)piperidin-4-ol]
< 4.00	5.00 to 6.00	Cc1nn(C)cc1-c1cc(N2CCC(O)(c3ccc(F)c(F)c3)CC2)ccn1 [Example 49, 4-(3,4-difluorophenyl)-1-(2-(1,3-dimethyl-1H-pyrazol-4-yl)pyridin-4-yl)piperidin-4-ol]
< 4.00	< 5.00	Cn1nc(C(F)(F)F)cc1-c1cncc(N2CCC(O)(c3ccc(F)c(F)c3)CC2)n1 [Example 50, 4-(3,4-difluorophenyl)-1-(6-(1-methyl-3-(trifluoromethyl)-1H-pyrazol-5-yl)pyrazin-2-yl)piperidin-4-ol]
< 4.00	6.00 to 7.00	Cc1nn(C)cc1-c1ccnc(N2CCC(O)(c3ccc(F)c(F)c3)CC2)n1 [Example 51, 4-(3,4-difluorophenyl)-1-(4-(1,3-dimethyl-1H-pyrazol-4-yl)pyrimidin-2-yl)piperidin-4-ol]
< 4.00	5.00 to 6.00	Cc1noc(C)c1-c1cncc(N2CCC(O)(c3ccc(F)c(F)c3)CC2)n1 [Example 52, 4-(3,4-difluorophenyl)-1-(6-(3,5-dimethylisoxazol-4-yl)pyrazin-2-yl)piperidin-4-ol]
< 4.00	5.00 to 6.00	Cc1cc(-c2cncc(N3CCC(O)(c4ccc(F)c(F)c4)CC3)n2)n(C)n1 [Example 53, 4-(3,4-difluorophenyl)-1-(6-(1,3-dimethyl-1H-pyrazol-5-yl)pyrazin-2-yl)piperidin-4-ol]
< 4.00	5.00 to 6.00	Cc1nn(C)cc1-c1nccc(N2CCC(O)(c3ccc(F)c(F)c3)CC2)n1 [Example 54, 4-(3,4-difluorophenyl)-1-(2-(1,3-dimethyl-1H-pyrazol-4-yl)pyrimidin-4-yl)piperidin-4-ol]
< 4.00	< 5.00	Cc1nn(C)cc1-c1ccnc(N2CCC(O)(c3ccc(F)c(F)c3)CC2)c1 [Example 55, 4-(3,4-difluorophenyl)-1-(4-(1,3-dimethyl-1H-pyrazol-4-yl)pyridin-2-yl)piperidin-4-ol]
< 4.00	6.00 to 7.00	Cc1nn(C)cc1-c1cncc(N2CCC(O)(c3ccc(F)cc3)C(F)(F)C2)n1 (stereo not shown) [Example 56, 1-(6-(1,3-dimethyl-1H-pyrazol-4-yl)pyrazin-2-yl)-3,3-difluoro-4-(4-fluorophenyl)piperidin-4-ol]
< 4.00	> 7.00	Cc1nc(-c2cn(C)nc2C)cc(N2CCC(O)(c3ccc(F)c(F)c3)CC2)n1 [Example 57, 4-(3,4-difluorophenyl)-1-(6-(1,3-dimethyl-1H-pyrazol-4-yl)-2-methylpyrimidin-4-yl)piperidin-4-ol]
4.00 to 5.00	> 7.00	Cc1nn(C)cc1-c1cc(N2CCC(O)(c3ccc(F)c(F)c3)CC2)ncn1 [Example 58, 4-(3,4-difluorophenyl)-1-(6-(1,3-dimethyl-1H-pyrazol-4-yl)pyrimidin-4-yl)piperidin-4-ol]
< 4.00	5.00 to 6.00	Cc1nn(C)cc1-c1cc(N2CCC(O)(c3ccc(F)c(F)c3)CC2)nc(-c2ccccc2)n1 [Example 59, 4-(3,4-difluorophenyl)-1-(6-(1,3-dimethyl-1H-pyrazol-4-yl)-2-phenylpyrimidin-4-yl)piperidin-4-ol]
< 4.00	5.00 to 6.00	Cn1cc(-c2cc(-c3cnn(C)c3)nc(N3CCC(O)(c4cccc(F)c4)CC3)c2)cn1 [Example 60, 1-(4,6-bis(1-methyl-1H-pyrazol-4-yl)pyridin-2-yl)-4-(3-fluorophenyl)piperidin-4-ol]
< 4.00	5.00 to 6.00	Cn1cc(-c2cc(N3CCC(O)(c4cccc(F)c4)CC3)cc(-c3cnn(C)c3)n2)cn1 [Example 61, 1-(2,6-bis(1-methyl-1H-pyrazol-4-yl)pyridin-4-yl)-4-(3-fluorophenyl)piperidin-4-ol]
4.00 to 5.00	> 7.00	Cc1nn(C)c(C)c1-c1cncc(N2CCC(O)(c3ccc(F)c(F)c3)CC2)n1 [Example 62, 4-(3,4-difluorophenyl)-1-(6-(1,3,5-trimethyl-1H-pyrazol-4-yl)pyrazin-2-yl)piperidin-4-ol]
5.00 to 6.00	> 7.00	CCn1cc(-c2cncc(N3CCC(O)(c4ccc(F)c(F)c4)CC3)n2)c(C)n1 [Example 63, 4-(3,4-difluorophenyl)-1-(6-(1-ethyl-3-methyl-1H-pyrazol-4-yl)pyrazin-2-yl)piperidin-4-ol]
< 4.00	5.00 to 6.00	O=C(NCCc1ccccc1)c1cncc(N2CCC(O)(c3ccc(F)cc3)CC2)n1 [Example 64, 6-(4-(4-fluorophenyl)-4-hydroxypiperidin-1-yl)-N-phenethylpyrazine-Z-carboxamide]
< 4.00	< 5.00	O=C(NCc1ccncc1)c1cncc(N2CCC(O)(c3ccc(F)cc3)CC2)n1 [Example 65, 6-(4-(4-fluorophenyl)-4-hydroxypiperidin-1-yl)-N-(pyridin-4-ylmethyl)pyrazine-2-carboxamide]
< 4.00	< 5.00	O=C(NCc1ccccn1)c1cncc(N2CCC(O)(c3ccc(F)cc3)CC2)n1 [Example 66, 6-(4-(4-fluorophenyl)-4-hydroxypiperidin-1-yl)-N-(pyridin-2-ylmethyl)pyrazine-2-carboxamide]
< 4.00	< 5.00	CN1CCN(C(=O)c2cncc(N3CCC(O)(c4ccc(F)cc4)CC3)n2)CC1 [Example 67, (6-(4-(4-fluorophenyl)-4-hydroxypiperidin-1-yl)pyrazin-2-yl)(4-methylpiperazin-1-yl)methanone]
< 4.00	5.00 to 6.00	O=C(NCCc1ccccn1)c1cncc(N2CCC(O)(c3ccc(F)cc3)CC2)n1 [Example 68, 6-(4-(4-fluorophenyl)-4-hydroxypiperidin-1-yl)-N-(2-(pyridin-2-yl)ethyl)pyrazine-2-carboxamide]
< 4.00	< 5.00	COCCNC(=O)c1cncc(N2CCC(O)(c3ccc(F)cc3)CC2)n1 [Example 69, 6-(4-(4-fluorophenyl)-4-hydroxypiperidin-1-yl)-N-(2-methoxyethyl)pyrazine-2-carboxamide]
< 4.00	< 5.00	CN(C)CCCNC(=O)c1cncc(N2CCC(O)(c3ccc(F)cc3)CC2)n1 [Example 70, N-(3-(dimethylamino)propyl)-6-(4-(4-fluorophenyl)-4-hydroxypiperidin-1-yl)pyrazine-2-carboxamide]

Reference: patent US20220313701A1, “MODULATORS OF TREX1” (Constellation Pharmaceuticals, Inc., priority 2019, published 2022)
